Assay results reported in ChEMBL document CHEMBL2331162, “Biophysical fragment screening of the β1-adrenergic receptor: identification of high affinity arylpiperazine leads using structure-based drug design” (J Med Chem, 2013).
The source made the active and inactive calls. The calls are words filed in the database; no cut-off is given here.

Tests used:
[1] = target: Beta-1 adrenergic receptor (Homo sapiens, UniProt P08588); experiment: Displacement of [3H]dihydroalprenolol from human wild type beta1 adrenergic receptor expressed in HEK293 cell membranes after 90 mins by liquid scintillation counting analysis
Beta-1 adrenergic receptor, sequence (P08588 whole entry): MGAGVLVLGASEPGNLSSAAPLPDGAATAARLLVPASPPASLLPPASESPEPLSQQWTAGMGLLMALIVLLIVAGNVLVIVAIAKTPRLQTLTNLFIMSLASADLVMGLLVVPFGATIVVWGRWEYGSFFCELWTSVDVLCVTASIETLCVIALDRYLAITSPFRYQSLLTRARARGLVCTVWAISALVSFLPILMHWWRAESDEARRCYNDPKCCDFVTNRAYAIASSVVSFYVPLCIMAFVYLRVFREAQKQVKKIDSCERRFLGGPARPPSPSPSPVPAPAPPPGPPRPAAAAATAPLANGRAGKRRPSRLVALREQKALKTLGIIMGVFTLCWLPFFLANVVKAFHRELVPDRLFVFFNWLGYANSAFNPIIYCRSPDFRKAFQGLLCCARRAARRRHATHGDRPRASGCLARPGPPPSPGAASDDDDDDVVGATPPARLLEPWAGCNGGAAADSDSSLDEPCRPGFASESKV

[2] = target: T1, Muscarinic acetylcholine receptor M2 (Homo sapiens, UniProt P08172); experiment: Displacement of [3H]-NMS from recombinant muscarinic M2 receptor (unknown origin) expressed in CHOK1 cells after 60 mins by liquid scintillation counting analysis; format: cell-based, CHO-K1
T1 sequence (P08172 whole entry): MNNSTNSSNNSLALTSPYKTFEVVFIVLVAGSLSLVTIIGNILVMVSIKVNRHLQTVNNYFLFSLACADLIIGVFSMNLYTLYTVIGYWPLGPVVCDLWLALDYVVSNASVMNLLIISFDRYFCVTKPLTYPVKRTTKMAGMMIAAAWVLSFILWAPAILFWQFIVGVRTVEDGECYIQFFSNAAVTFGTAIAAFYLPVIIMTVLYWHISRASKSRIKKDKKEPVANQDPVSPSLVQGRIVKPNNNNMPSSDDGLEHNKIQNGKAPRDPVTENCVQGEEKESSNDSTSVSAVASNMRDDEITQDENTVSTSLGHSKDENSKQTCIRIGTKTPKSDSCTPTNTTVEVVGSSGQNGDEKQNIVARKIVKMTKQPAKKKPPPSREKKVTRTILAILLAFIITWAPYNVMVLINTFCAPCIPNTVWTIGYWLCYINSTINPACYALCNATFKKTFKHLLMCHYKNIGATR

[3] = target: T2, Muscarinic acetylcholine receptor M4 (Homo sapiens) (UniProt P08173); experiment: Agonist activity at human muscarinic M4 receptor expressed in CHO cells assessed as stimulation of ERK1/2 phosphorylation after 15 mins by Alphascreen Surefire assay; format: cell-based
T2 sequence (whole entry): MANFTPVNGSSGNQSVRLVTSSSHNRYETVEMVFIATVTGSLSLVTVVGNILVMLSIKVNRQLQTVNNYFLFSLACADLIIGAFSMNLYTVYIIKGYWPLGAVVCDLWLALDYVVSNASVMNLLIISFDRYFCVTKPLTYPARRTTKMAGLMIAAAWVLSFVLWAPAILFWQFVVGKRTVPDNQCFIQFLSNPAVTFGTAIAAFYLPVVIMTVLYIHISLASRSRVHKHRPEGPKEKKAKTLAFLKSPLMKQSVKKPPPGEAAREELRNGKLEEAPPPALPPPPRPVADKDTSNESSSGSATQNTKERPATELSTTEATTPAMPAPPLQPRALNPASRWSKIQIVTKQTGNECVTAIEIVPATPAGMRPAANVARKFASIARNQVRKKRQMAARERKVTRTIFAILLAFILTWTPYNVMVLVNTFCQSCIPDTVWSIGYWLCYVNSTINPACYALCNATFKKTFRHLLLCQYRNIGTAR

[4] = target: T3, Muscarinic acetylcholine receptor M3 (Homo sapiens, UniProt P20309); experiment: Agonist activity at human muscarinic M3 receptor expressed in CHO cells assessed as stimulation of ERK1/2 phosphorylation after 15 mins by Alphascreen Surefire assay; format: cell-based
Target sequence in this assay (P20309 whole entry, looked up): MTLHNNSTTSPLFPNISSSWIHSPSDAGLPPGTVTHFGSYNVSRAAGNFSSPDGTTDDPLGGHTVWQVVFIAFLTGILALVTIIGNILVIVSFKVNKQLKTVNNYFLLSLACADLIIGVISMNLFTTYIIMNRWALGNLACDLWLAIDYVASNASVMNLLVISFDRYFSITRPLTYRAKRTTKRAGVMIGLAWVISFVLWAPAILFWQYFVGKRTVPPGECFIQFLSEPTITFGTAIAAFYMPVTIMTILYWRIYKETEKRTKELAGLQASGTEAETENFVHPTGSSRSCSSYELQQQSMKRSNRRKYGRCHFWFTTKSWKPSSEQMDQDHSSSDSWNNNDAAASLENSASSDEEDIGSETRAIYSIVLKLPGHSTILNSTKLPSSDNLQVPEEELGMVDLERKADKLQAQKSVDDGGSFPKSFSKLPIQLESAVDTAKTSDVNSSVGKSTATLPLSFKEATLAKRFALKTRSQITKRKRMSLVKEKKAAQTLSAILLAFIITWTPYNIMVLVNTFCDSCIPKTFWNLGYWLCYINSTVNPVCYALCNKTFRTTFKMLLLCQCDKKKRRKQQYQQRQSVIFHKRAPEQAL

[5] = target: T4, Muscarinic acetylcholine receptor M1 (Homo sapiens) (UniProt P11229); experiment: Agonist activity at human muscarinic M1 receptor expressed in CHO cells assessed as stimulation of ERK1/2 phosphorylation after 15 mins by Alphascreen Surefire assay; format: cell-based
T4 sequence (whole entry): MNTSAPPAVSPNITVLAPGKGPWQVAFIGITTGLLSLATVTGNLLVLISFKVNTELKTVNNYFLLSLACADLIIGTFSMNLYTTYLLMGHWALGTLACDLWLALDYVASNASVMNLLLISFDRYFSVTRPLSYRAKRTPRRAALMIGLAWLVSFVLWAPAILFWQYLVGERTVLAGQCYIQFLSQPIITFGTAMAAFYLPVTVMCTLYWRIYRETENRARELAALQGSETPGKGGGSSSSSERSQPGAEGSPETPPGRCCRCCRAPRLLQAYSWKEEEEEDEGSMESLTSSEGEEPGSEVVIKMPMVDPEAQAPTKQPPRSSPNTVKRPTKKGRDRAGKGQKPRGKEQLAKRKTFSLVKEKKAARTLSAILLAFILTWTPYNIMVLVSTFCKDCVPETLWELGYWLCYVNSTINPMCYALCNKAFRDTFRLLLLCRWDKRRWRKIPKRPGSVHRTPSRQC

[6] = target: T5, Muscarinic acetylcholine receptor M2 (Homo sapiens) (UniProt P08172); experiment: Agonist activity at human muscarinic M2 receptor expressed in CHO cells assessed as stimulation of ERK1/2 phosphorylation after 15 mins by Alphascreen Surefire assay; format: cell-based
T5 sequence (whole entry): T1 sequence (P08172 whole entry)

[7] = target: T6, Muscarinic acetylcholine receptor M4 (Homo sapiens, UniProt P08173); experiment: Displacement of [3H]-NMS from recombinant muscarinic M4 receptor (unknown origin) expressed in CHOK1 cells after 60 mins by liquid scintillation counting analysis; format: cell-based, CHO-K1
T6 sequence (P08173 whole entry): T2 sequence (whole entry)

[8] = target: T3, Muscarinic acetylcholine receptor M3; experiment: Displacement of [3H]-NMS from recombinant muscarinic M3 receptor (unknown origin) expressed in CHOK1 cells after 60 mins by liquid scintillation counting analysis; format: cell-based, CHO-K1
Target sequence in this assay (P20309 whole entry): as the sequence (P20309 whole entry, looked up) above

SMILES: COc1cc(OC)cc(N2CCNCC2)c1
- Ki [1]: 1580 nM

SMILES: Cc1nc(N2CCNCC2)c2c3c(sc2n1)CC(C)CC3 (stereo unspecified)
- Ki [1]: 676 nM

SMILES: Cc1cc(N2CCNCC2)nc2ccccc12
- Ki [1]: 224 nM
- Ki [2]: > 20000 nM
- Activity [3]: inactive
- Activity [4]: inactive
- Activity [5]: inactive
- Activity [6]: inactive

SMILES: Clc1ccc(N2CCNCC2)cc1Cl
- Ki [1]: 214 nM

SMILES: Cc1cc(N2CCNCC2)c2ccccc2n1
- Ki [1]: 1580 nM

SMILES: FC(F)(F)c1cc(N2CCNCC2)cc(C(F)(F)F)c1
- Ki [1]: 1260 nM

SMILES: FC(F)(F)c1ccnc(N2CCNCC2)n1
- Ki [1]: 2510 nM

SMILES: c1cc(N2CCNCC2)c2cc[nH]c2c1
- Ki [1]: 67.6 nM
- Ki [2]: > 20000 nM
- Activity [3]: inactive
- Activity [4]: inactive
- Activity [5]: inactive
- Activity [6]: inactive

SMILES: CSc1nc(N2CCNCC2)c2sc3c(c2n1)CCCC3
- Ki [1]: 200 nM

SMILES: c1csc(-c2cccc3ccc(N4CCNCC4)nc23)c1
- Ki [1]: 251 nM

SMILES: Clc1cccc(N2CCNCC2)c1Cl
- Ki [1]: 107 nM
- Ki [2]: > 20000 nM
- Activity [3]: inactive
- Activity [4]: inactive
- Activity [5]: inactive
- Activity [6]: inactive

SMILES: Cc1ccc(N2CCNCC2)cc1C
- Ki [1]: 741 nM

SMILES: Cc1cccc(N2CCNCC2)c1C
- Ki [1]: 537 nM

SMILES: Clc1cc(Cl)cc(N2CCNCC2)c1
- Ki [1]: 85.1 nM
- Ki [7]: 31600 nM
- Ki [8]: 7940 nM
- Activity [3]: inactive
- Activity [4]: inactive
- Activity [5]: inactive
- Activity [6]: inactive

SMILES: FC(F)(F)c1ccnc(N2CCNCC2)c1
- Ki [1]: 2340 nM
